Experimental data: PubChem BioAssay AID330 (DTP/NCI, 2004)
Values joined by “and” are separate entries in the source; they are usually repeats but may differ in a detail not shown here. Equal entries are not always repeated. Toxic doses and inconclusive results are not listed. The calls were made as follows: active = survival T/C of 150% or more; inactive = T/C below 125% in these data.

Tested on: P388 leukemia ip, CD2F1 mice, survival T/C
Test: NCI In Vivo Anticancer Drug Screen. Data for tumor model P388 Leukemia (intraperitoneal) in CD2F1 (CDF1) mice
Conditions: endpoint: median survival time, higher = longer survival
Method in brief: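 Mice carrying the transplanted tumor received test compound or vehicle. Survival was recorded in each group, and the value is the treated-group measurement divided by that of the vehicle-treated control group.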

[1] = dose: 50.0 mg/kg/injection, schedule: Q01DX009 (ip), vehicle: Klucel (hydroxypropylcellulose) (HPC)
[2] = dose: 6.25 mg/kg/injection, schedule: Q01DX005 (ip), vehicle: Klucel (hydroxypropylcellulose) (HPC)
[3] = dose: 12.5 mg/kg/injection, schedule: Q01DX005 (ip), vehicle: Klucel (hydroxypropylcellulose) (HPC)
[4] = dose: 50.0 mg/kg/injection, schedule: Q01DX005 (ip), vehicle: Klucel (hydroxypropylcellulose) (HPC)
[5] = dose: 100.0 mg/kg/injection, schedule: Q01DX005 (ip), vehicle: Klucel (hydroxypropylcellulose) (HPC)
[6] = dose: 200.0 mg/kg/injection, schedule: Q01DX005 (ip), vehicle: Klucel (hydroxypropylcellulose) (HPC)
[7] = dose: 25.0 mg/kg/injection, schedule: Q01DX005 (ip), vehicle: Klucel (hydroxypropylcellulose) (HPC)
[8] = dose: 6.25 mg/kg/injection, schedule: Q01DX009 (ip), vehicle: saline
[9] = dose: 12.5 mg/kg/injection, schedule: Q01DX009 (ip), vehicle: saline
[10] = dose: 25.0 mg/kg/injection, schedule: Q01DX009 (ip), vehicle: saline
[11] = dose: 50.0 mg/kg/injection, schedule: Q01DX009 (ip), vehicle: saline
[12] = dose: 50.0 mg/kg/injection, schedule: Q01DX005 (ip), vehicle: saline with Tween-80
[13] = dose: 100.0 mg/kg/injection, schedule: Q01DX005 (ip), vehicle: saline with Tween-80
[14] = dose: 200.0 mg/kg/injection, schedule: Q01DX005 (ip), vehicle: saline with Tween-80

Measured: T/C

CCCCCNC(=S)N/N=C(\C)c1ccccn1
inactive: dose: 12.5 mg/kg/injection, schedule: Q01DX009 (ip), vehicle: Klucel (hydroxypropylcellulose) (HPC) 107 % of control | dose: 25.0 mg/kg/injection, schedule: Q01DX009 (ip), vehicle: Klucel (hydroxypropylcellulose) (HPC) 123 % of control | [1] 106 % of control

Cc1ncc([N+](=O)[O-])n1CCOc1c(Cl)cc(Cl)cc1CN(C)C1CCCCC1
inactive: dose: 3.12 mg/kg/injection, schedule: Q01DX005 (ip), vehicle: Klucel (hydroxypropylcellulose) (HPC) 100 % of control | [2] 98 % of control | [3] 105 % of control

CC(O[Si](C)(C)C(C)(C)C)C(=O)Sc1ccccn1 (centres undefined)
inactive: dose: 60.0 mg/kg/injection, schedule: Q01DX005 (ip), vehicle: saline with Tween-80 102 % of control | dose: 120.0 mg/kg/injection, schedule: Q01DX005 (ip), vehicle: saline with Tween-80 103 % of control

CC1=C(CO)C(=O)OC(C(C)C2CCC3C4CC5OC56C(O)C(N5CCCC5)CC(=O)C6(C)C4CCC23C)C1 (centres undefined)
inactive: dose: 8.75 mg/kg/injection, schedule: Q01DX005 (ip), vehicle: Klucel (hydroxypropylcellulose) (HPC) 94 % of control | dose: 17.5 mg/kg/injection, schedule: Q01DX005 (ip), vehicle: Klucel (hydroxypropylcellulose) (HPC) 97 % of control | dose: 35.0 mg/kg/injection, schedule: Q01DX005 (ip), vehicle: Klucel (hydroxypropylcellulose) (HPC) 99 % of control | dose: 70.0 mg/kg/injection, schedule: Q01DX005 (ip), vehicle: Klucel (hydroxypropylcellulose) (HPC) 111 % of control | dose: 140.0 mg/kg/injection, schedule: Q01DX005 (ip), vehicle: Klucel (hydroxypropylcellulose) (HPC) 103 % of control

CCOCNC=O
inactive: dose: 125.0 mg/kg/injection, schedule: Q01DX005 (ip), vehicle: water 107 % of control | dose: 250.0 mg/kg/injection, schedule: Q01DX005 (ip), vehicle: water 100 % of control | dose: 500.0 mg/kg/injection, schedule: Q01DX005 (ip), vehicle: water 107 % of control | dose: 1000.0 mg/kg/injection, schedule: Q01DX005 (ip), vehicle: water 112 % of control

Cc1nc2ncn(-c3ccccc3)c2c(=O)n1CC(C)C
inactive: [4] 100 % of control | [5] 101 % of control | [6] 102 % of control

COc1cc([C@@H]2c3cc4c(cc3[C@H](OC(=O)c3ccncc3)[C@H]3COC(=O)[C@H]23)OCO4)cc(OC)c1OC
inactive: [2] 101 % of control | [3] 104 % of control | [7] 118 % of control

COC(=O)C1=CO[C@@H](OC2OC(CO)C(O)C(O)C2O)[C@@H]2[C@H](C)[C@@H](O)[C@@H](O)[C@]12O (some centres undefined)
inactive: dose: 25.0 mg/kg/injection, schedule: Q01DX005 (ip), vehicle: saline 115 % of control | dose: 50.0 mg/kg/injection, schedule: Q01DX005 (ip), vehicle: saline 100 % of control | dose: 100.0 mg/kg/injection, schedule: Q01DX005 (ip), vehicle: saline 106 % of control | dose: 200.0 mg/kg/injection, schedule: Q01DX005 (ip), vehicle: saline 106 % of control

CN(CCO)C1=C(N2CC2)C(=O)C(N(C)CCO)=C(N2CC2)C1=O
active: dose: 0.4 mg/kg/injection, schedule: Q01DX009 (ip), vehicle: saline 175 % of control and 194 % of control | dose: 0.8 mg/kg/injection, schedule: Q01DX009 (ip), vehicle: saline 194 % of control and 245 % of control
119 % of control and 262 % of control: dose: 1.6 mg/kg/injection, schedule: Q01DX009 (ip), vehicle: saline

Cc1ccc(NC(=O)CCCCC(C)NCC(O)c2ccc(O)c(O)c2)cc1 (centres undefined)
inactive: dose: 100.0 mg/kg/injection, schedule: Q01DX001 (ip), vehicle: saline 97 % of control | dose: 200.0 mg/kg/injection, schedule: Q01DX001 (ip), vehicle: saline 100 % of control

COc1ccc(OC(=O)Nc2ccc(Cl)c(C(F)(F)F)c2)c(Cl)c1
inactive: dose: 1.56 mg/kg/injection, schedule: Q01DX009 (ip), vehicle: saline 100 % of control | dose: 3.12 mg/kg/injection, schedule: Q01DX009 (ip), vehicle: saline 94 % of control | [8] 88 % of control and 95 % of control | [9] 96 % of control | [10] 93 % of control | dose: 100.0 mg/kg/injection, schedule: Q01DX009 (ip), vehicle: saline + alcohol 101 % of control | dose: 200.0 mg/kg/injection, schedule: Q01DX009 (ip), vehicle: saline + alcohol 100 % of control

C=CC1(C)CCC2C(=CCC3C2(C)CC(O)C(O)C3(C)COC2OC(CO)C(O)C(O)C2O)C1 (centres undefined)
inactive: dose: 1.5 mg/kg/injection, schedule: Q01DX009 (ip), vehicle: Klucel (hydroxypropylcellulose) (HPC) 103 % of control | dose: 3.0 mg/kg/injection, schedule: Q01DX009 (ip), vehicle: Klucel (hydroxypropylcellulose) (HPC) 106 % of control | dose: 6.0 mg/kg/injection, schedule: Q01DX009 (ip), vehicle: Klucel (hydroxypropylcellulose) (HPC) 116 % of control | dose: 12.0 mg/kg/injection, schedule: Q01DX009 (ip), vehicle: Klucel (hydroxypropylcellulose) (HPC) 108 % of control | [9] 99 % of control | dose: 24.0 mg/kg/injection, schedule: Q01DX009 (ip), vehicle: Klucel (hydroxypropylcellulose) (HPC) 108 % of control | [10] 100 % of control | [11] 98 % of control | dose: 100.0 mg/kg/injection, schedule: Q01DX009 (ip), vehicle: saline 93 % of control

CCCCCCCCCCCCCCCCNCCCS(=O)(=O)O
inactive: dose: 6.25 mg/kg/injection, schedule: Q01DX009 (ip), vehicle: saline with Tween-80 96 % of control | [8] 103 % of control | dose: 12.5 mg/kg/injection, schedule: Q01DX009 (ip), vehicle: saline with Tween-80 107 % of control | [9] 100 % of control | [10] 100 % of control | dose: 50.0 mg/kg/injection, schedule: Q01DX009 (ip), vehicle: saline with Tween-80 103 % of control | [11] 103 % of control

O=C1/C(=C/c2ccccc2)CNC/C1=C\c1ccccc1
inactive: dose: 60.0 mg/kg/injection, schedule: Q01DX005 (ip), vehicle: Klucel (hydroxypropylcellulose) (HPC) 102 % of control | dose: 120.0 mg/kg/injection, schedule: Q01DX005 (ip), vehicle: Klucel (hydroxypropylcellulose) (HPC) 111 % of control | dose: 240.0 mg/kg/injection, schedule: Q01DX005 (ip), vehicle: Klucel (hydroxypropylcellulose) (HPC) 116 % of control

CCN(CCO)CCc1cccc2ccccc12
inactive: [4] 104 % of control | [5] 99 % of control

CN1CCC2(CC1)C(C#N)C(=O)NC(=O)C2C#N (centres undefined)
inactive: [12] 105 % of control | [13] 100 % of control | [14] 100 % of control

S=C1NCCCN1
inactive: dose: 25.0 mg/kg/injection, schedule: Q04DX003 (ip), vehicle: saline 99 % of control | dose: 50.0 mg/kg/injection, schedule: Q04DX003 (ip), vehicle: saline 104 % of control | dose: 100.0 mg/kg/injection, schedule: Q04DX003 (ip), vehicle: saline 100 % of control | dose: 200.0 mg/kg/injection, schedule: Q04DX003 (ip), vehicle: saline 100 % of control

NNC(=O)CCC(=O)NN
inactive: dose: 100.0 mg/kg/injection, schedule: Q04DX002 (ip), vehicle: saline 101 % of control | dose: 200.0 mg/kg/injection, schedule: Q04DX002 (ip), vehicle: saline 96 % of control

c1cc(-c2nc3ccc(-c4nc5ccc(C6=NCCN6)cc5[nH]4)cc3[nH]2)ccc1C1=NCCN1
inactive: [2] 100 % of control | [3] 98 % of control | [4] 88 % of control

Nc1cc(=O)cc2nn[nH]n12
inactive: [1] 102 % of control | dose: 100.0 mg/kg/injection, schedule: Q01DX009 (ip), vehicle: Klucel (hydroxypropylcellulose) (HPC) 108 % of control | dose: 200.0 mg/kg/injection, schedule: Q01DX009 (ip), vehicle: Klucel (hydroxypropylcellulose) (HPC) 101 % of control

COc1cccc(C2Nc3ccccc3C(=O)N2N2CCOCC2)c1 (centres undefined)
inactive: [4] 100 % of control | [5] 94 % of control | [6] 96 % of control

NCCCCC(C(=O)NC(CO)C(=O)O)N(C(=O)OCc1ccccc1)C(=O)OCc1ccccc1 (centres undefined)
inactive: [12] 101 % of control | [13] 101 % of control | [14] 90 % of control

CCCCCCCCCCNCCSSCc1ccc(OC)cc1
inactive: [2] 103 % of control | [3] 103 % of control | [7] 100 % of control
